Experimental findings from US9539327B2, “Small molecule cancer treatments that cause necrosis in cancer cells but do not affect normal cells” (THE RESEARCH FOUNDATION FOR THE STATE UNIVERSITY OF NEW YORK, priority 2007, dated 2017) are described below.

Ends that are not written are not given here.

For orientation: IC50 means the concentration that gives 50% inhibition. A higher IC50 goes with lower potency.

The subject of series [1] is MiaPaCa-2, Hu-Melanoma cells, BMRPA1.TUC-3 cells. The series is described as follows: Dose-response cytotoxicity by LDH release, cancer cells (FIG. 13 A-C). Particulars: 1-500 micrograms/ml; 30 min at 37° C.; tumor cells. It is filed as cell-based. The procedure: (§1) FIG. 13, graphs A through D, depict the results of dose-response experiments completed on three difference cancer cell samples and one normal primary human cell line to treatment in vitro with PNC-27 (from 1-500 micrograms/ml). The cancer cell lines were human pancreatic cancer, MiaPaCa-2 (upper left, A), Hu-Melanoma cells (upper right, B), and a rodent tumor cell line, i.e., pancreatic cancer BMRPA1.TUC-3 cells (lower left, C). As controls, cells from the same cell lines were tested in parallel with a control peptide, PNC-29, over the same range of peptide concentrations. As another control, cells from primary human Ag 13145 fibroblasts (lower right, D) were treated with the same doses of PNC-27 and PNC-29, respectively.
(§2) The results are plotted along with those for PNC-29, the negative control. […] The measurements of cytotoxicity were performed by assaying for LDH in the cell supernatant.
(§3) For the dose response experiments (n=3-5), 0.1 ml of each of the cells (70,000 cells/ml of culture medium) were seeded into each of the wells of 96-well TCD (7000 cells/well) and allowed to adhere overnight. […] The results were read at OD490 nm in an ELISA plate reader within 15 min of stopping the color development in the wells. The results were calculated as advised by the manufacturers guidelines (CytoTox 96 Non-radioactive Cytotoxicity Assay, Promega), and the data were expressed in % Cytotoxicity.
A general note: LDH in the medium is a marker of cell lysis.

Series [2] deals with human pancreatic cancer MIA PaCa-2 cells. In words: Transmission electron microscopy of PNC-28-treated cells (FIG. 8). Format: cell-based. As to conditions: treated for 10 minutes; 50 μg/ml. As for the experimental part:
FIG. 8 depicts a photograph taken during a Transmission Electron Microscopy study of human pancreatic cancer MIA PaCa-2 cells that had been treated for 10 minutes with PNC-28. […] The middle arrow depicts an area of the cell's plasma membrane that has erupted as a result of PNC-28 acting upon it. The bottom-most arrow depicts an area on the cell's plasma membrane that is discontinuous as a result of PNC-28 administration. From one or more of these areas emphasized with arrows, the cytoplasm will begin to leak from the cell, into the surrounding medium. Extrusion of much of the cells cytoplasmic content through such holes (pores) while the nuclear membrane was still intact was a frequent finding in these and other tumor cells when the incubation period with PNC-28 was extended. Magn. ×42,600.
Cells (1×10^6) were grown in 6-well dishes overnight then spent medium was removed, the cells were washed with PBS and treated at 37° C. with PNC-28 at 50 μg/ml in PBS. At different time points (5-30 min) during the PNC-28 treatment the cells were washed and fixed in 3% buffered paraformaldehyde supplemented with 0.01% glutaraldehyde for 1.5 h. After extensive washing, the cells were treated with glycine and NaBH4 as described above followed by 3 times washing in PBS. […]

The test system of series [3] is non-cancerous cells. The series is described as follows: Untransformed cell lines and primary human cells incubated with peptide (FIG. 5). It is filed as cell-based. Particulars: Thirty microMolar; one day up to two weeks; normal rat pancreatic acinar cells, human breast cells, primary human fibroblasts, primary human keratinocytes, umbilical cord stem cells. From the text: The experimental methods which yielded the data depicted in FIG. 5 are described in sufficient detail for those skilled in the art in the following publications: • Kanovsky, M., Raffo, A., Drew, L., Rosal, R., Do, T., Friedman, F. K., Rubinstein, P., Visser, I., Robinson, R., Brandt-Rauf, […]., Fine, R. L. and Pincus, M. R. (2001) Peptides from the Amino Terminal mdm-2 Binding Domain of p53, Designed from Conformational Analysis, Are Selectively Cytotoxic to Transformed Cells. Proc. Natl. Acad. Sci. USA 98, 12438-12443; • Do, T. N., Rosal, R. V., Drew, L., Raffo, […]., Pincus, M. R., Friedman, […]., Sidhu, G., Fine, R. L. and Brandt-Rauf, P. W. (2003) Preferential Induction of Necrosis in Human Breast Cancer Cells by a p53 Peptide Derived from the mdm-2 Binding Site. Oncogene 22, 1431-1444; and • Bowne, […]., Yadzi, E., Lou, […]., Harding, M., Bluth, M. H., Ng, M., Brandt-Rauf, […]. and Pincus, M. r. (2008) The Penetrating Sequence in the Anti-Cancer PNC-28 Peptide Causes Tumor Necrosis Rather than Apoptosis of Human Pancreatic Cancer Cells. Ann. Surg. Oncol., in press. Referring to FIG. 5, the table illustrates that the cancer treatment PNC-27, when administered to non-cancerous cells, has no effect. […]

Series [4] relates to primary human Ag 13145 fibroblasts. In words: Dose-response cytotoxicity by LDH release, normal fibroblasts (FIG. 13 D). Format: cell-based. Particulars: same dose range as applied to tumor cells (1-500 micrograms/ml); 30 min at 37° C. As for the experimental part: as §1, §2, §3
In series [5] the test system is Cancer cells.
Method: After the cells were treated, the cells were incubated first with the anti-p53 antibody that recognizes p53 residues 12-26. This antibody is called DO-1, and it is labeled with FITC, a green fluorescent probe. The cells were washed free of any excess antibody. Then the cells were incubated with an anti-HDM-2 antibody that was been conjugated to a red fluorescent dye. After washing the cells free of excess antibody, the cells were subjected to confocal microscopy.

As to `CC[C@H](C)[C@H](NC(=O)[C@H](CCCNC(=N)N)NC(=O)[C@H](CCCCN)NC(=O)CNC(=O)[C@@H](NC(=O)[C@H](CO)NC(=O)[C@H](Cc1ccccc1)NC(=O)[C@@H]1CCCN1C(=O)[C@@H](N)CCSC)[C@@H](C)O)C(=O)N[C@@H](CCSC)C(=O)N[C@@H](CC(C)C)C(=O)NCC(=O)N[C@@H](CCC(=O)O)C(=O)N[C@@H](CCCCN)C(=O)N[C@@H](CCCCN)C(=O)N[C@@H](Cc1c[nH]c2ccccc12)C(=O)N[C@@H](CCCCN)C(=O)N[C@@H](CCSC)C(=O)N[C@@H](CCCNC(=N)N)C(=O)N[C@@H](CCCNC(=N)N)C(=O)N[C@@H](CC(N)=O)C(=O)N[C@@H](CCC(N)=O)C(=O)N[C@@H](Cc1ccccc1)C(=O)N[C@@H](Cc1c[nH]c2ccccc12)C(=O)N[C@H](C(=O)N[C@@H](CCCCN)C(=O)N[C@H](C(=O)N[C@@H](CCC(N)=O)C(=O)N[C@@H](CCCNC(=N)N)C(=O)NCC(=O)O)C(C)C)C(C)C` [PNC-29, reference compound], the “cytotoxicity (LDH in the cell supernatant)” value in series [1] is recorded as “absence of any effect”.
As to “ETFSDLWKLLKKWKMRRNQFWVKVQRG (PNC-28) [p53 AA 17-26 attached to the membrane resident peptide (MRP)]”, the “plasma membrane change (TEM)” value in series [2] was “needle-shaped pore has formed in the cancer cell plasma membrane”. Further, the “effect on non-cancerous cells” value in series [3] is given as “no measurable effect”.
On to “PPLSQETFSDLWKLLKKWKMRRNQFWVKVQRG [PNC-27]”, for which the “cytotoxicity (LDH in the cell supernatant)” value is reported as “strong dose dependency” in series [1] and “no effect” in series [4]. This molecule displayed an IC50 in series [5] of 125 µg/mL.
